The values that follow come from patent publication US7932270B2 (Cytokinetics, Inc., priority 2006, dated 2011).

The target in the test is T1, chicken gizzard smooth muscle myosin subfragment-1 chemically crosslinked to cardiac or skeletal actin (Gallus gallus, UniProt P10587).
T1 construct: chicken gizzard smooth muscle myosin subfragment-1; from tissue; host or cells: chicken gizzard
T1 sequence (P02607 2-151): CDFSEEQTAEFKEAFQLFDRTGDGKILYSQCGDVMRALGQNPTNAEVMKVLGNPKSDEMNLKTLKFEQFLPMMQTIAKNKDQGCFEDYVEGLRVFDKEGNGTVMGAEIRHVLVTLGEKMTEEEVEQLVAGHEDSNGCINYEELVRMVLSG
T1 sequence (P10587 84-789): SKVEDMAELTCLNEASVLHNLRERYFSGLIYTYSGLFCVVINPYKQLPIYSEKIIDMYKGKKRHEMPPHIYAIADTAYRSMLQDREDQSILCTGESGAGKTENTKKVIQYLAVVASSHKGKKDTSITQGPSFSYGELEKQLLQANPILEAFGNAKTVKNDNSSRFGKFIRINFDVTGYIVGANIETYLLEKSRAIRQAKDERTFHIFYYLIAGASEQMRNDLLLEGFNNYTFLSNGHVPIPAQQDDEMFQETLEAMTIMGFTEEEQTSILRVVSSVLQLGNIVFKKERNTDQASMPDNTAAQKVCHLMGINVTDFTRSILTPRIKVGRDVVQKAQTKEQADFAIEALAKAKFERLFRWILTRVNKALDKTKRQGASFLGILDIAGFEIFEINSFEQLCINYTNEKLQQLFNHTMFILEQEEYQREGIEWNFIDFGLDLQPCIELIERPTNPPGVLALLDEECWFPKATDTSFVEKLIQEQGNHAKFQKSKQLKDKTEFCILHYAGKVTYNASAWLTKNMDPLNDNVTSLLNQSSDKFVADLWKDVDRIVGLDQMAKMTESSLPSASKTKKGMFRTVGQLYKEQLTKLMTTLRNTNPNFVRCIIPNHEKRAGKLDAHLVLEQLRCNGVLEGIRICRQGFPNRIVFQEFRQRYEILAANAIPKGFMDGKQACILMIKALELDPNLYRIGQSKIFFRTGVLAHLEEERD
Put plainly: Smooth muscle myosin ATPase dose response assay (pyruvate kinase/horseradish peroxidase/pyruvate oxidase-coupled, amplex red fluorescence). The note with it: read-out: IC50 Arithmetic Mean. The test is classed as biochemical. On the procedure: In Vitro Model of Dose Dependent Smooth Muscle Myosin ATPase Modulation
Screening assays were performed using a pyruvate kinase and lactate dehydrogenase-coupled ATPase assay containing the following reagents: Potassium PIPES (50 mM), MgCl2 (3 mM), KCl (100 mM), ATP (0.15 mM), DTT (1 mM), BSA (0.1 mg/ml), NADH (0.5 mM), PEP (1.5 mM), pyruvate kinase (4 U/ml), lactate dehydrogenase (8 U/ml), and antifoam (50 ppm) (concentrations expressed are final assay concentrations). The pH was adjusted to 6.80 at 22° C. by addition of potassium hydroxide. Lead optimization assays were performed with a more sensitive pyruvate kinase/horseradish peroxidase/pyruvate oxidase-coupled ATPase assay containing the following reagents: Potassium PIPES (12 mM), MgCl2 (2 mM), KCl (100 mM), ATP (0.15 mM), BSA (0.05 mg/ml), potassium phosphate (2 mM), amplex red (0.1 mM), PEP (0.1 mM), pyruvate kinase (4 U/ml), horseradish peroxidase (0.5 U/ml), pyruvate oxidase (0.5 U/ml), and antifoam (50 ppm) (concentrations expressed are final assay concentrations). The pH was adjusted to 7.00 at 22° C. by addition of potassium hydroxide.
The protein components specific to this assay are chicken gizzard smooth muscle myosin subfragment-1 that has been chemically crosslinked to either cardiac or skeletal actin using an excess of 1-Ethyl-3-[3-dimethylaminopropyl]carbodiimide hydrochloride and N-hydroxysuccinimide. The exact concentration of the crosslinked smooth muscle myosin in the assay is determined empirically, by titration to achieve a desired rate of ATP hydrolysis. The concentration varies between protein preparations due to variations in the fraction of active molecules in each preparation.
Compound dose response assays are performed by first preparing a dilution series of test compound, each with an assay mixture containing potassium PIPES, MgCl2, KCl, ATP, BSA, potassium phosphate, amplex red, PEP, crosslinked smooth muscle actomyosin (subfragment-1), antifoam, and water. The assay is started by adding an equal volume of solution containing potassium Pipes, MgCl2, KCl, BSA, potassium phosphate, pyruvate kinase, horseradish peroxidase, pyruvate oxidase, antifoam, and water. ATP hydrolysis is monitored by measuring the fluorescence of amplex red (excitation at 480 nm, emission at 615 nm). The resulting dose response curve is fit by the 4 parameter equation y=Bottom+((Top-Bottom)/(1+((IC50/X)^Hill))). The IC50 is defined as the concentration at which ATPase activity is midway between the top and bottom of the dose response curve.
In the case of `CC(=O)N1CC(=O)N[C@@H](CNC(=O)c2ccc(-c3ccccc3C#N)nc2NCCc2cccc(F)c2)C1` (stereo in doubt) [N-[(4-acetyl-6-oxopiperazin-2-yl)methyl](6-(2-cyanophenyl)-2-{[2-(3-fluorophenyl)ethyl]amino}(3-pyridyl))carboxamide], the IC50 turned out to be 1.63 µM. On to `OC(CNCc1ccccn1)c1ccc(-c2ccccc2)nc1NCCc1cccc(F)c1` (stereo not drawn) [1-(2-{[2-(3-fluorophenyl)ethyl]amino}-6-phenyl(3-pyridyl))-2-[(2-pyridylmethyl)amino]ethan-1-ol], for which the IC50 is 19.4 µM. `N#Cc1ccccc1-c1ccc(CC(=O)NCc2cccnc2)c(NCCc2cccc(F)c2)n1` [2-(6-(2-cyanophenyl)-2-{[2-(3-fluorophenyl)ethyl]amino}(3-pyridyl))-N-(3-pyridylmethyl)acetamide]: the half-inhibitory concentration (IC50) was 13.2 µM. `NC(=O)c1ccccc1-c1ccc(C(=O)NCc2cccnc2)c(NCCc2cccc(F)c2)n1` [2-(6-{[2-(3-fluorophenyl)ethyl]amino}-5-[N-(3-pyridylmethyl)carbamoyl]-2-pyridyl)benzamide]: the IC50 came to 16.4 µM.

Take `Cn1cc(-c2nc(NCCc3cccc(F)c3)c(C(=O)NC[C@H]3CCN3C(=O)COC(=O)CNC(=O)OC(C)(C)C)cc2F)cn1` [2-((2R)-2-{[(5-fluoro-2-{[2-(3-fluorophenyl)ethyl]amino}-6-(1-methylpyrazol-4-yl)(3-pyridyl))carbonylamino]methyl}azetidinyl)-2-oxoethyl 2-[(tert-butoxy)carbonylamino]acetate]: the IC50 worked out at 0.191 µM. Take `Cn1cc(-c2nc(NCCc3cccc(F)c3)c(C(=O)NC[C@H]3CCN3C(=O)COC(=O)CN)cc2F)cn1` [2-((2R)-2-{[(5-fluoro-2-{[2-(3-fluorophenyl)ethyl]amino}-6-(1-methylpyrazol-4-yl)(3-pyridyl))carbonylamino]methyl}azetidinyl)-2-oxoethyl 2-aminoacetate]: the half-inhibitory concentration (IC50) turned out to be 0.045 µM.

In the case of `COP(=O)(OC)OCC(=O)N1CC[C@@H]1CNC(=O)c1cc(F)c(-c2cnn(C)c2)nc1NCCc1cccc(F)c1` [2-((2R)-2-{[(5-fluoro-2-{[2-(3-fluorophenyl)ethyl]amino}-6-(1-methylpyrazol-4-yl)(3-pyridyl))carbonylamino]methyl}azetidinyl)-2-oxoethyl dimethyl phosphate], the concentration for half-maximal inhibition (IC50) came out at 0.4 µM.

For `NCC1CCCCN1C(=O)c1ccc(-c2ccccc2)nc1NCCc1ccccn1` (stereo not drawn) [2-(aminomethyl)piperidyl 6-phenyl-2-[(2-(2-pyridyl)ethyl)amino](3-pyridyl) ketone], the IC50 stood at 18.2 µM. Consider `NCCCN1C(=O)CC[C@@H]1CNC(=O)c1ccc(-c2ccccc2C(N)=O)nc1NCCc1cccc(F)c1` [2-[5-(N-{[(2R)-1-(3-aminopropyl)-5-oxopyrrolidin-2-yl]methyl}carbamoyl)-6-{[2-(3-fluorophenyl)ethyl]amino}-2-pyridyl]benzamide], for which the IC50 is 13.2 µM. Regarding `CNC(=O)CNC(=O)c1ccc(-c2cnn(C)c2)nc1NCCc1cccc(F)c1` [2-[(2-{[2-(3-fluorophenyl)ethyl]amino}6-(1-methylpyrazol-4-yl)(3-pyridyl))carbonylamino]-N-methylacetamide], the IC50 was determined as 0.35 µM.

Consider `CNC(=O)CNC(=O)c1ccc(-c2ccc(CO)s2)nc1NCCc1cccc(F)c1` [2-[(2-{[2-(3-fluorophenyl)ethyl]amino}-6-[5-(hydroxymethyl)(2-thienyl)](3-pyridyl))carbonylamino]-N-methylacetamide], for which the half-maximal inhibitory concentration (IC50) was found to be 0.254 µM. For `CNC(=O)CNC(=O)c1ccc(-c2cn[nH]c2)nc1NCCc1cccc(F)c1` [2-[(2-{[2-(3-fluorophenyl)ethyl]amino}-6-pyrazol-4-yl(3-pyridyl))carbonylamino]-N-methylacetamide], the half-maximal inhibitory concentration (IC50) turned out to be 0.328 µM. In the case of `CNC(=O)CNC(=O)c1cc(F)c(-c2cn[nH]c2)nc1NCCc1cccc(F)c1` [2-[(5-fluoro-2-{[2-(3-fluorophenyl)ethyl]amino}-6-pyrazol-4-yl(3-pyridyl))carbonylamino]-N-methylacetamide], the IC50 amounted to 0.065 µM. `CN(C)C(=O)CNC(=O)c1ccc(-c2ccccc2C#N)nc1NCCc1cccc(F)c1` [2-[(6-(2-cyanophenyl)-2-{[2-(3-fluorophenyl)ethyl]amino}(3-pyridyl))carbonylamino]-N,N-dimethylacetamide]: the IC50 is 0.532 µM. As for `N#Cc1ccccc1-c1ccc(C(=O)NCC(=O)NCCO)c(NCCc2cccc(F)c2)n1` [2-[(6-(2-cyanophenyl)-2-{[2-(3-fluorophenyl)ethyl]amino}(3-pyridyl))carbonylamino]-N-(2-hydroxyethyl)acetamide], the concentration for half-maximal inhibition (IC50) amounted to 2.07 µM.

Turning to `N#Cc1ccccc1-c1ccc(C(=O)NCC(=O)NCCCO)c(NCCc2cccc(F)c2)n1` [2-[(6-(2-cyanophenyl)-2-{[2-(3-fluorophenyl)ethyl]amino}(3-pyridyl))carbonylamino]-N-(3-hydroxypropyl)acetamide], the concentration for half-maximal inhibition (IC50) was found to be 5.84 µM.

In the case of `CS(=O)(=O)NC(=O)CNC(=O)c1ccc(-c2ccccc2C#N)nc1NCCc1cccc(F)c1` [2-[(6-(2-cyanophenyl)-2-{[2-(3-fluorophenyl)ethyl]amino}(3-pyridyl))carbonylamino]-N-(methylsulfonyl)acetamide], the IC50 was determined as 24.9 µM. As for `CNCCNC(=O)CNC(=O)c1ccc(-c2ccccc2C#N)nc1NCCc1cccc(F)c1` [2-[(6-(2-cyanophenyl)-2-{[2-(3-fluorophenyl)ethyl]amino}(3-pyridyl))carbonylamino]-N-[2-(methylamino)ethyl]acetamide], the 50% inhibitory concentration (IC50) stood at 11.1 µM. `CNC(=O)CNC(=O)c1ccc(-c2ccccc2C#N)nc1NCCc1cccc(F)c1` [2-[(6-(2-cyanophenyl)-2-{[2-(3-fluorophenyl)ethyl]amino}(3-pyridyl))carbonylamino]-N-methylacetamide]: the IC50 is 0.102 µM.

For `CN(CCNC(=O)c1ccc(-c2ccccc2C#N)nc1NCCc1cccc(F)c1)C(=O)CNC(=O)OC(C)(C)C` [2-[(tert-butoxy)carbonylamino]-N-{2-[(6-(2-cyanophenyl)-2-{[2-(3-fluorophenyl)ethyl]amino}(3-pyridyl))carbonylamino]ethyl}-N-methylacetamide], the IC50 came to 15.3 µM. `Cn1cc(-c2nc(NCCc3cccc(F)c3)c(C(=O)NCCCNC(=O)CNC(=O)OC(C)(C)C)cc2F)cn1` [2-[(tert-butoxy)carbonylamino]-N-{3-[(5-fluoro-2-{[2-(3-fluorophenyl)ethyl]amino}-6-(1-methylpyrazol-4-yl)(3-pyridyl))carbonylamino]propyl}acetamide]: the IC50 was determined as 0.768 µM.

With `NCC(O)c1ccc(-c2ccccc2)nc1NCCc1cccc(F)c1` (stereo not drawn) [2-amino-1-(2-{[2-(3-fluorophenyl)ethyl]amino}-6-phenyl(3-pyridyl))ethan-1-ol], the half-inhibitory concentration (IC50) turned out to be 52.5 µM. As to `CN(CCNC(=O)c1ccc(-c2ccccc2C#N)nc1NCCc1cccc(F)c1)C(=O)CN` [2-amino-N-{2-[(6-(2-cyanophenyl)-2-{[2-(3-fluorophenyl)ethyl]amino}(3-pyridyl))carbonylamino]ethyl}-N-methylacetamide], the IC50 turned out to be 1.37 µM.

Take `N#Cc1ccccc1-c1ccc(C(=O)NCCNC(=O)CN)c(NCCc2cccc(F)c2)n1` [2-amino-N-{2-[(6-(2-cyanophenyl)-2-{[2-(3-fluorophenyl)ethyl]amino}(3-pyridyl))carbonylamino]ethyl}acetamide]: the half-maximal inhibitory concentration (IC50) amounted to 1.23 µM. `Cn1cc(-c2nc(NCCc3cccc(F)c3)c(C(=O)NCCCNC(=O)CN)cc2F)cn1` [2-amino-N-{3-[(5-fluoro-2-{[2-(3-fluorophenyl)ethyl]amino}-6-(1-methylpyrazol-4-yl)(3-pyridyl))carbonylamino]propyl}acetamide]: the half-maximal inhibitory concentration (IC50) came to 2.49 µM.

For `N#Cc1ccccc1-c1ccc(C(=O)NC[C@H]2CCCCN2C(=O)OCCN)c(NCCc2cccc(F)c2)n1` [2-aminoethyl (2R)-2-{[(6-(2-cyanophenyl)-2-{[2-(3-fluorophenyl)ethyl]amino}(3-pyridyl))carbonylamino]methyl}piperidinecarboxylate], the IC50 was 0.091 µM. The same measure for `N#Cc1ccccc1-c1ccc(C(=O)NC[C@H]2CCCN2C(=O)OCCN)c(NCCc2cccc(F)c2)n1` [2-aminoethyl (2R)-2-{[(6-(2-cyanophenyl)-2-{[2-(3-fluorophenyl)ethyl]amino}(3-pyridyl))carbonylamino]methyl}pyrrolidinecarboxylate]: 0.027 µM.
